Tests used:
[1] = system: human iPS cells (1231A3 strain); assay: Bright field observation of cell aggregates in suspension culture (aggregate shape, neuroepithelium / neural tissue formation); assay type: cell-based
Protocol: The above subconfluent human iPS cells were treated with a cell dispersion solution by using TrypLE Select (Life Technologies), and further dispersed into single cells by a pipetting operation. Thereafter, the above human iPS cells dispersed into single cells were suspended in 100 μl of a serum-free medium in a non-cell-adhesive 96 well culture plate (PrimeSurface 96V-bottom plate, SUMITOMO BAKELITE) at 1.2×10^4 cells per well, and subjected to suspension culturing at 37° C., 5% CO2. As a serum-free medium (gfCDM+KSR) therefor, a 1:1 mixture of F-12 medium and IMDM medium supplemented with 10% KSR, 450 μM 1-monothioglycerol, 1× Chemically defined lipid concentrate was used. At the start of the suspension culturing (on day 0 after the start of suspension culturing, step 2 start), Y27632 (final concentration 20 μM) was added to the above serum-free medium. By day 2 after the start of suspension culturing, cell aggregates were formed (step 2 completed, and step 3 start). On day 3 after the start of suspension culturing, a serum-free medium (50 μl) free of Y27632 was added.
On day 6 after the start of suspension culturing, a half amount of the medium was changed with a medium free of Y27632 and containing or not containing human recombinant BMP4 (manufactured by R&D) to adjust the final concentration of exogenous human recombinant BMP4 to 1.5 nM (55 ng/ml, FIG. 1B) or to give a medium free of exogenous human recombinant BMP4 (FIG. 1A). As the half-medium exchange operation, a half volume of the medium in the culture vessel, namely 75 μl, was discarded, the above fresh serum-free medium (75 μl) was added to adjust the total medium amount to 150 μl. Thereafter, a half amount of the medium was changed with the above serum-free medium free of Y27632 and human recombinant BMP4 once per 2-4 days. […]
The thus-prepared subconfluent human iPS cells were treated with a cell dispersion solution by using TrypLE Select (Life Technologies), and further dispersed into single cells by a pipetting operation. Thereafter, the above human iPS cells dispersed into single cells were suspended in 100 μl of a serum-free medium in a non-cell-adhesive 96 well culture plate (PrimeSurface 96V-bottom plate, SUMITOMO BAKELITE) at 1.2×10^4 cells per well, and subjected to suspension culturing at 37° C., 5% CO2. As a serum-free medium (gfCDM+KSR) therefor, a 1:1 mixture of F-12 medium and IMDM medium supplemented with 10% KSR, 450 μM 1-monothioglycerol, 1× Chemically defined lipid concentrate was used. […] By day 2 after the start of suspension culturing, cell aggregates were formed (step 2 completed, step 3 start). On day 3 after the start of suspension culturing, a serum-free medium (50 μl) free of Y27632 and SAG was added. On day 6 after the start of suspension culturing, a half amount of the medium was changed with a medium free of Y27632 and containing or not containing human recombinant BMP4 (manufactured by R&D) to adjust the final concentration of exogenous human recombinant BMP4 to 1.5 nM (55 ng/ml, FIG. 1D) or to give a medium free of exogenous human recombinant BMP4 (FIG. 1C). As the half-medium exchange operation, a half volume of the medium in the culture vessel, namely 75 μl, was discarded, the above fresh serum-free medium (75 μl) was added to adjust the total medium amount to 150 μl. Thereafter, a half amount of the medium was changed with the above serum-free medium free of Y27632, SAG and human recombinant BMP4 once per 2-4 days. […]
The thus-prepared subconfluent human iPS cells were treated with the cell dispersion solution by using TrypLE Select (Life Technologies), further dispersed into single cells by pipetting operation, and the above human iPS cells dispersed into single cells were suspended in 100 μl of a serum-free medium at 1.2×10^4 cells per well of a non-cell-adhesive 96-well culture plate (PrimeSurface 96V-bottom plate, manufactured by SUMITOMO BAKELITE). Thereafter, the cells were subjected to suspension culturing at 37° C., 5% CO2. […]

[2] = system: human iPS cells (1231A3 strain); assay: Immunostaining of aggregate cryosections for retinal tissue markers Chx10 and Rx; assay type: cell-based
Description: The above cell aggregates on day 19 after the start of suspension culturing were each fixed with 4% para-formaldehyde to give cryosections. These cryosections were immunostained for Chx10 (anti-Chx10 antibody, manufactured by Exalpha, sheep), which is one of the retinal tissue markers, or Rx (anti-Rx antibody, manufactured by TAKARA, guinea pig), which is one of the retinal tissue markers. In judgment of whether the above marker is positive in the immunostaining analysis, a fluorescence intensity which is not less than 2 times higher than that of the background was taken as positive.
The thus-prepared cell aggregates on day 18 after the start of suspension culturing, which were produced by adding SAG in step 2 from feeder-free iPS cells as a starting material, were fixed with 4% para-formaldehyde to produce frozen sections. These frozen sections were immunostained for Chx10 (anti-Chx10 antibody, Exalpha, sheep), which is one of the retinal tissue markers, or Rx (anti-Rx antibody, manufactured by TAKARA, guinea pig), which is one of the retinal tissue markers. These immunostained sections were observed under an inverted fluorescence microscope.
The cell aggregates on day 18 after the start of suspension culturing were fixed with 4% para-formaldehyde to produce frozen sections. These frozen sections were immunostained for Chx10 (anti-Chx10 antibody, Exalpha, sheep), which is one of the retinal tissue markers.

[3] = Example 1, StemFit, SAG 300 nM day 0, BMP4 1.5 nM day 6, day 19
[4] = Example 1, StemFit, SAG 300 nM day 0, no BMP4, day 19
[5] = Example 2 Condition 3, Essential 8, SAG 300 nM day 0, no BMP4, day 18
[6] = Example 4 Condition 1, SAG 300 nM day 0, BMP4 1.5 nM day 3, day 18
[7] = Example 4 Condition 2, SAG 300 nM day 0, BMP4 1.5 nM day 6, day 18
[8] = Example 5 Condition 1, SAG 600 nM day 0, BMP4 1.5 nM day 3, day 18
[9] = Example 5 Condition 2, SAG 600 nM day 0, BMP4 1.5 nM day 6, day 18

## CNC1CCC(N(Cc2cccc(-c3ccncc3)c2)C(=O)c2sc3ccccc3c2Cl)CC1 (stereo not drawn) [SAG]
[1]; [3]
  aggregate shape and neuroepithelial structure (bright field): cell aggregates were maintained, and neuroepithelial structure was observed
[1]; [4]
  aggregate shape and neuroepithelial structure (bright field): cell aggregates were maintained, and neuroepithelial structure was observed
[1]; [5]
  aggregate shape and neuroepithelial structure (bright field): cell aggregates were maintained, and neuroepithelial structure was efficiently formed
  proportion of bad form aggregates (collapsed, free of neuroepithelium): 6%
  proportion of good form aggregates (containing many neuroepithelia): 93%
[1]; Example 2 Condition 4, Essential 8, SAG 300 nM day 0, BMP4 1.5 nM day 6, day 18
  aggregate shape and neuroepithelial structure (bright field): cell aggregates were maintained, and neuroepithelial structure was efficiently formed
[1]; Example 4 Condition 1, StemFit, SAG 300 nM day 0, BMP4 1.5 nM day 3, day 18
  aggregate shape and neural tissue formation (microscope): cell aggregates were maintained, and a neural tissue was formed
[1]; Example 4 Condition 2, StemFit, SAG 300 nM day 0, BMP4 1.5 nM day 6, day 18
  aggregate shape and neural tissue formation (microscope): cell aggregates were maintained, and a neural tissue was formed
[1]; Example 5 Condition 1, StemFit, SAG 600 nM day 0, BMP4 1.5 nM day 3, day 18
  aggregate shape and neural tissue formation (microscope): cell aggregates were maintained, and a neural tissue was formed
[1]; Example 5 Condition 2, StemFit, SAG 600 nM day 0, BMP4 1.5 nM day 6, day 18
  aggregate shape and neural tissue formation (microscope): cell aggregates were maintained, and a neural tissue was formed
[1]; Example 7, StemFit, SAG 30 nM, PMA 0.2 μM or human recombinant Shh 300 ng/ml day 0, BMP4 1.5 nM day 3, day 18
  aggregate growth and neuroepithelium formation (bright field): cell aggregates grew and neuroepithelium was formed
[2]; [3]
  proportion of Chx10-positive cells: not less than 60%
  proportion of Rx-positive cells in the total cells: not less than 60%
[2]; [4]
  proportion of Chx10-positive cells: less than 3%
  proportion of Rx-positive cells in the total cells: less than 3%
[2]; [6]
  proportion of Chx10-positive cells: about 40%
  proportion of Rx-positive cells in the total cells: about 40%
[2]; [7]
  proportion of Chx10-positive cells: about 40%
  proportion of Rx-positive cells in the total cells: about 40%
[2]; [8]
  proportion of Chx10-positive cells: about 40%
  proportion of Rx-positive cells in the total cells: about 40%
[2]; [9]
  proportion of Chx10-positive cells: about 40%
  proportion of Rx-positive cells in the total cells: about 40%
[2]; Example 7, SAG 30 nM or Shh 300 ng/ml day 0, BMP4 1.5 nM day 3, day 18
  presence of Chx10-positive cells in the cell aggregate: contained Chx10-positive cells

— patent publication US11214772B2, “Production method for retinal tissue” (SUMITOMO DAINIPPON PHARMA CO., LTD., priority 2014, dated 2022)
